Measurements from patent US8263389B2, “Perifusion device” (Biorep Technologies, Inc., priority 2007, dated 2012).
Where no end group is shown, it is not given here.

What was measured:
Islet cells = assay: insulin release by perifusion of islet cells after oxygen deprivation, measured by ELISA; assay type: cell-based; conditions: 11 mM glucose, GLP-1 in addition to 11 mM glucose, KCl
Method: Islet cells were compromised by depriving them from the normal oxygen concentration for 0.5, 2, 6, and 12 hours. After that, these islets were incubated in the perifusion system and exposed to substances that stimulate insulin release such as 11 mM of glucose, GLP-1 in addition to 11 mM of glucose, and potassium chloride (KCl).

human islets = assay: glucagon-insulin release from in vitro perifused human islets; assay type: cell-based; conditions: alpha cells of perifused human islets
Method: FIG. 22 illustrates glucagon-insulin release from in vitro perifused human islets. This experiment was conducted to show the usefulness of the perifusion system in drug screening. Insulin and glucagon are hormones secreted from the beta and alpha cells of the islets of Langerhans. […] In the same way, any other compound's ability to influence the health or alter the behavior of the pancreatic islets can be assayed using the perifusion system of the invention.

[1] = control batch, normal culture conditions without oxygen deprivation
[2] = islets after twelve hours of incubation with low oxygen

Row | Compound | insulin release response to stimulus (Islet cells; [1]) | insulin release response to stimulus (Islet cells; [2]) | glucagon release profile (human islets)
1 | [Cl-].[K+] [KCl, potassium chloride] | prominent response | very small | –
2 | GLP-1 (HAEGTFTSDVSSYLEGQAAKEFIAWLVKGR; ends and bridges not checked; UniProt P01275 98-127, looked up) | prominent response | little or no response | –
3 | kainates | – | – | stimulated the alpha cells to produce glucagon
